Laboratory results as given in PubChem BioAssay (NCI).
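All cell lines were grown in 96-well plates and treated with compound for 48 hours. GI50 is the concentration that inhibits growth by half. TGI: concentration producing complete growth inhibition.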

Legend:
Assay in all cases: DTP human tumour cell line panel, 48 h
RXF 393 renal = system: RXF 393 renal
SF-539 CNS = system: SF-539 CNS
SK-OV-3 ovarian = system: SK-OV-3 ovarian
HCT-15 colon = system: HCT-15 colon
M14 melanoma = system: M14 melanoma
BT-549 breast = system: BT-549 breast
U251 CNS = system: U251 CNS
A498 renal = system: A498 renal
HOP-92 NSCLC = system: HOP-92 NSCLC
OVCAR-8 ovarian = system: OVCAR-8 ovarian
OVCAR-4 ovarian = system: OVCAR-4 ovarian
HL-60(TB) leukemia = system: HL-60(TB) leukemia
UACC-257 melanoma = system: UACC-257 melanoma
EKVX NSCLC = system: EKVX NSCLC
UACC-62 melanoma = system: UACC-62 melanoma
IGROV1 ovarian = system: IGROV1 ovarian
KM12 colon = system: KM12 colon
SNB-19 CNS = system: SNB-19 CNS
LOX IMVI melanoma = system: LOX IMVI melanoma
SF-295 CNS = system: SF-295 CNS
MALME-3M melanoma = system: MALME-3M melanoma
DU-145 prostate = system: DU-145 prostate
OVCAR-3 ovarian = system: OVCAR-3 ovarian
NCI-H226 lung = system: NCI-H226 lung
ACHN renal = system: ACHN renal
NCI-H460 lung = system: NCI-H460 lung
HCT-116 colon = system: HCT-116 colon
A549 NSCLC = system: A549 NSCLC
SF-268 CNS = system: SF-268 CNS
COLO 205 colon = system: COLO 205 colon
HCC-2998 colon = system: HCC-2998 colon
SK-MEL-28 melanoma = system: SK-MEL-28 melanoma
T-47D breast = system: T-47D breast
K-562 leukemia = system: K-562 leukemia
PC-3 prostate = system: PC-3 prostate
HS 578T breast = system: HS 578T breast
SK-MEL-5 melanoma = system: SK-MEL-5 melanoma
CCRF-CEM leukemia = system: CCRF-CEM leukemia
SK-MEL-2 melanoma = system: SK-MEL-2 melanoma
HT29 colon = system: HT29 colon
UO-31 renal = system: UO-31 renal
MDA-MB-435 = system: MDA-MB-435
MDA-MB-231 breast = system: MDA-MB-231 breast
MDA-MB-468 breast = system: MDA-MB-468 breast
HOP-62 NSCLC = system: HOP-62 NSCLC
NCI-H23 lung = system: NCI-H23 lung
TK-10 renal = system: TK-10 renal
CAKI-1 renal = system: CAKI-1 renal
MOLT-4 leukemia = system: MOLT-4 leukemia
SW-620 colon = system: SW-620 colon
OVCAR-5 ovarian = system: OVCAR-5 ovarian
RPMI-8226 leukemia = system: RPMI-8226 leukemia
SNB-75 CNS = system: SNB-75 CNS
MCF7 breast = system: MCF7 breast
786-0 renal = system: 786-0 renal
SN12C renal = system: SN12C renal
SR leukemia = system: SR leukemia
NCI-H522 lung = system: NCI-H522 lung

Compound: CCOC(=O)C1=C(N)N(c2ccccc2)C2=C(C(=O)CC(C)(C)C2)C1c1ccc(Cl)cc1Cl (stereo unspecified)
- GI50 (RXF 393 renal): 13.8 µM
- TGI (RXF 393 renal): > 100 µM
- GI50 (SF-539 CNS): 37.8 µM
- TGI (SF-539 CNS): > 100 µM
- GI50 (SK-OV-3 ovarian): 33.5 µM
- TGI (SK-OV-3 ovarian): > 100 µM
- GI50 (HCT-15 colon): 15.2 µM
- TGI (HCT-15 colon): > 100 µM
- GI50 (M14 melanoma): 34.8 µM
- TGI (M14 melanoma): > 100 µM
- GI50 (BT-549 breast): 45.8 µM
- TGI (BT-549 breast): > 100 µM
- GI50 (U251 CNS): 24.6 µM
- TGI (U251 CNS): > 100 µM
- GI50 (A498 renal): 45.4 µM
- TGI (A498 renal): > 100 µM
- GI50 (HOP-92 NSCLC): 3.89 µM
- TGI (HOP-92 NSCLC): 65.5 µM
- GI50 (OVCAR-8 ovarian): 37.2 µM
- TGI (OVCAR-8 ovarian): > 100 µM
- GI50 (OVCAR-4 ovarian): 28.3 µM
- TGI (OVCAR-4 ovarian): > 100 µM
- GI50 (HL-60(TB) leukemia): 5.95 µM
- TGI (HL-60(TB) leukemia): > 100 µM
- GI50 (UACC-257 melanoma): 28.8 µM
- TGI (UACC-257 melanoma): > 100 µM
- GI50 (EKVX NSCLC): 26.2 µM
- TGI (EKVX NSCLC): > 100 µM
- GI50 (UACC-62 melanoma): 12.6 µM
- TGI (UACC-62 melanoma): > 100 µM
- GI50 (IGROV1 ovarian): 79.7 µM
- TGI (IGROV1 ovarian): > 100 µM
- GI50 (KM12 colon): 23.6 µM
- TGI (KM12 colon): > 100 µM
- GI50 (SNB-19 CNS): 29.2 µM
- TGI (SNB-19 CNS): > 100 µM
- GI50 (LOX IMVI melanoma): 32.4 µM
- TGI (LOX IMVI melanoma): > 100 µM
- GI50 (SF-295 CNS): 20.3 µM
- TGI (SF-295 CNS): > 100 µM
- GI50 (MALME-3M melanoma): 29.3 µM
- TGI (MALME-3M melanoma): > 100 µM
- GI50 (DU-145 prostate): 67.1 µM
- TGI (DU-145 prostate): > 100 µM
- GI50 (OVCAR-3 ovarian): 26.2 µM
- TGI (OVCAR-3 ovarian): > 100 µM
- GI50 (NCI-H226 lung): 23.4 µM
- TGI (NCI-H226 lung): > 100 µM
- GI50 (ACHN renal): 18.3 µM
- TGI (ACHN renal): > 100 µM
- GI50 (NCI-H460 lung): 13.9 µM
- TGI (NCI-H460 lung): > 100 µM
- GI50 (HCT-116 colon): 7.89 µM
- TGI (HCT-116 colon): > 100 µM
- GI50 (A549 NSCLC): 18.8 µM
- TGI (A549 NSCLC): > 100 µM
- GI50 (SF-268 CNS): 53.2 µM
- TGI (SF-268 CNS): > 100 µM
- GI50 (COLO 205 colon): 20.6 µM
- TGI (COLO 205 colon): 91.3 µM
- GI50 (HCC-2998 colon): 27.7 µM
- TGI (HCC-2998 colon): > 100 µM
- GI50 (SK-MEL-28 melanoma): 66.7 µM
- TGI (SK-MEL-28 melanoma): > 100 µM
- GI50 (T-47D breast): 10.4 µM
- TGI (T-47D breast): > 100 µM
- GI50 (K-562 leukemia): 7.23 µM
- TGI (K-562 leukemia): > 100 µM
- GI50 (PC-3 prostate): 4.14 µM
- TGI (PC-3 prostate): > 100 µM
- GI50 (HS 578T breast): 76.8 µM
- TGI (HS 578T breast): > 100 µM
- GI50 (SK-MEL-5 melanoma): 12.4 µM
- TGI (SK-MEL-5 melanoma): 25.6 µM
- GI50 (CCRF-CEM leukemia): 31 µM
- TGI (CCRF-CEM leukemia): > 100 µM
- GI50 (SK-MEL-2 melanoma): 17 µM
- TGI (SK-MEL-2 melanoma): 58 µM
- GI50 (HT29 colon): 19.8 µM
- TGI (HT29 colon): > 100 µM
- GI50 (UO-31 renal): 11.5 µM
- TGI (UO-31 renal): > 100 µM
- GI50 (MDA-MB-435): 32.1 µM
- TGI (MDA-MB-435): > 100 µM
- GI50 (MDA-MB-231 breast): 33.5 µM
- TGI (MDA-MB-231 breast): > 100 µM
- GI50 (MDA-MB-468 breast): 6.83 µM
- TGI (MDA-MB-468 breast): 53.8 µM
- GI50 (HOP-62 NSCLC): 48.8 µM
- TGI (HOP-62 NSCLC): > 100 µM
- GI50 (NCI-H23 lung): 25.1 µM
- TGI (NCI-H23 lung): > 100 µM
- GI50 (TK-10 renal): 56.3 µM
- TGI (TK-10 renal): > 100 µM
- GI50 (CAKI-1 renal): 6.82 µM
- TGI (CAKI-1 renal): > 100 µM
- GI50 (MOLT-4 leukemia): 9.56 µM
- TGI (MOLT-4 leukemia): > 100 µM
- GI50 (SW-620 colon): 29 µM
- TGI (SW-620 colon): > 100 µM
- GI50 (OVCAR-5 ovarian): 72.6 µM
- TGI (OVCAR-5 ovarian): > 100 µM
- GI50 (RPMI-8226 leukemia): 7.07 µM
- TGI (RPMI-8226 leukemia): > 100 µM
- GI50 (SNB-75 CNS): 53.3 µM
- TGI (SNB-75 CNS): > 100 µM
- GI50 (MCF7 breast): 17.7 µM
- TGI (MCF7 breast): > 100 µM
- GI50 (786-0 renal): 42.4 µM
- TGI (786-0 renal): > 100 µM
- GI50 (SN12C renal): 30.8 µM
- TGI (SN12C renal): > 100 µM
- GI50 (SR leukemia): 14.7 µM
- TGI (SR leukemia): > 100 µM
- GI50 (NCI-H522 lung): 22.2 µM
- TGI (NCI-H522 lung): > 100 µM
